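Tested at 5 concentrations; 48 h exposure; 96-well plates; endpoints linearly interpolated, else capped at highest concentration. Abbreviation: GI50, concentration required for 50% inhibition of growth.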 Active and inactive are the calls of the source. Cut-off read from the data, not from the text of the source: active = GI50 up to about 1.1 µM and inactive = higher.
Key:
Assay in all cases: DTP human tumour cell line panel, 48 h
[1] = system: KM-20L2
[2] = system: SNB-78
[3] = system: DLD-1
[4] = system: RXF 631
[5] = system: XF498
[6] = system: LXFL 529
[7] = system: DMS-273
[8] = system: MCF7
[9] = system: DU-145

Measured: GI50

COc1ccc(C(=O)c2c3cc(OC)c(OC)c(OC)c3cc[n+]2C)cc1
inactive: [1] 28.3 µM | [2] 38.5 µM | [3] 17.1 µM | [4] 37.4 µM | [5] 15 µM | [6] 24.9 µM

Cn1nc(-c2ccccc2)c(C(=O)/C=C/c2ccccc2)c(N2CCCC2)c1=O
inactive: [1] 14.5 µM | [7] 14.7 µM | [3] 12.1 µM | [4] 29 µM | [5] 18.8 µM | [6] 11.9 µM

CCCCCCCCCCC(C)CCCCCCC(=O)OCC(COP(=O)([O-])OCC[N+](C)(C)C)OC(=O)CCCCCCC(C)CCCCCCCCCC (stereo not given)
inactive: [1] > 100 µM | [7] > 100 µM | [2] > 100 µM | [3] > 100 µM | [4] > 100 µM | [6] > 100 µM

O=C(NC1CCCCC1)NC12CC3CC(CC(F)(C3)C1)C2
inactive: [1] > 100 µM | [7] > 100 µM | [2] > 100 µM | [3] > 100 µM | [4] > 100 µM | [5] > 100 µM | [6] > 100 µM

c1ccc(C2N3CCCCC3[C@@H]3c4[nH]c5ccccc5c4CCN23)cc1 (stereo not given in full)
inactive: [1] > 100 µM | [7] 50.7 µM | [2] 47.5 µM | [3] 54.1 µM | [5] > 100 µM | [6] 85.3 µM

Clc1cc(Cl)cc(C2SCc3nc4ccccc4n32)c1 (stereo not given)
inactive: [7] 7.28 µM | [2] 6.03 µM | [3] > 10 µM | [4] 14.2 µM | [6] 14.4 µM

Clc1ccc(OC2CCO2)cc1Cl (stereo not given)
inactive: [1] 76.4 µM | [7] 63.1 µM | [2] > 100 µM | [3] 85.9 µM | [4] 25.1 µM | [6] 70.5 µM

COc1cc(=O)oc(/C=C/C=O)c1C
inactive: [1] 16.8 µM | [7] 17.2 µM | [2] > 10 µM | [3] 16 µM | [4] 14.7 µM | [5] 17 µM | [6] 17.1 µM

COc1ccc2c(c1)OC[C@@H]1c3cc(O)c(OCc4ccccc4)cc3O[C@H]21
inactive: [1] 33.9 µM | [7] 40.6 µM | [2] 19.7 µM | [3] 36.1 µM | [4] 45.2 µM | [5] 26.2 µM | [6] 18.7 µM

Cn1c(=O)c2nc3sc4c(n3c2n(C)c1=O)C(=O)c1ccccc1C4=O
inactive: [1] > 100 µM | [7] > 100 µM | [8] > 25.9 µM | [2] > 100 µM | [9] > 65 µM | [3] > 100 µM | [4] > 100 µM | [5] > 100 µM | [6] > 100 µM

Source: ChEMBL document CHEMBL1201862, “PubChem BioAssay data set” (2004)
